Reference: ChEMBL document CHEMBL5608189, “Design and synthesis of unique indole-benzosulfonamide oleanolic acid derivatives as potent antibacterial agents against MRSA” (Eur J Med Chem, 2024)
The source made the active and inactive calls. The rule behind the calls is not given here.

Legend:
Staphylococcus aureus [1] = experiment: Antibacterial activity against Staphylococcus aureus ATCC 6538 assessed as inhibition of bacterial growth at 1 times MIC measured every 2 hrs for 24 hrs by time kill assay; assay type: functional, organism-based
Staphylococcus aureus [2] = experiment: Antibacterial activity against Staphylococcus aureus ATCC 6538 assessed as delay in bacterial growth at 0.5 times MIC measured every 2 hrs for 24 hrs by time kill assay; assay type: functional, organism-based
Staphylococcus aureus [3] = experiment: Antibacterial activity against methicillin-resistant Staphylococcus aureus assessed as inhibition of bacterial growth at 2 to 4 times MIC measured every 2 hrs for 24 hrs by time kill assay relative to control; assay type: functional
Cell membrane [4] = experiment: Disruption of cell membrane integrity in methicillin-resistant Staphylococcus aureus assessed as protein leakage at 8 times MIC incubated for 8 hrs by BCA assay; assay type: cell membranes
Staphylococcus aureus [5] = experiment: Induction of morphological changes in methicillin-resistant Staphylococcus aureus assessed as disruption of cellular structure at 8 times MIC incubated for 8 hrs by SEM analysis; assay type: functional, organism-based
Cell membrane [6] = experiment: Induction of membrane depolarization in methicillin-resistant Staphylococcus aureus assessed as increase in fluorescence intensity at 1 to 8 times MIC measured after 30 mins by DiSC3(5) dye based spectrofluorometer; assay type: cell membranes
Cell membrane [7] = experiment: Induction of cell membrane in methicillin-resistant Staphylococcus aureus assessed as increase in fluorescence intensity at 1 to 8 times MIC measured after 30 mins by SYTOX green dye based spectrofluorometer; assay type: cell membranes
[8] = Toxicity in female C57BL/6 mouse assessed as changes in skin tissue at 10 to 30 mg/kg administered daily for 3 days and measured on day 4 by H and E staining based microscopic analysis; assay type: organism-based; settings: in vivo, 96 h, dose 10-30 mg/kg, time 4 day
Staphylococcus aureus [9] = experiment: Induction of intracellular ROS accumulation in methicillin-resistant Staphylococcus aureus assessed as number of fluorescence cells at 2 times MIC incubated for 6 hrs by DCFH-DA staining based flow cytometry analysis (reference value: 3.88)

CC1(C)CC[C@]2(C(=O)NS(=O)(=O)c3ccc(Cl)cc3)CC[C@]3(C)C(=CC[C@@H]4[C@@]5(C)Cc6c([nH]c7c(C(=O)O)cccc67)C(C)(C)[C@@H]5CC[C@]43C)[C@@H]2C1
Activity (Staphylococcus aureus [1]): Active
Activity (Staphylococcus aureus [2]): Active
inhibition (INH) (Staphylococcus aureus [3]): 100%
Activity (Cell membrane [4]): 168 µg/mL
Activity (Staphylococcus aureus [5]): Active
Activity (Cell membrane [6]): Dose-Dependent Effect
Activity (Cell membrane [7]): Dose-Dependent Effect
Activity [8]: Non-Toxic
Activity (Staphylococcus aureus [9]): 1.57
